Measured values reported in the supplement of paper PMC10326909.

Experiment: ESI positive response factor (isotope-corrected peak area per molar concentration) in SFC/ESI/HRMS (area units per M); higher = higher ionization efficiency
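Further: standards in acetonitrile/water run in triplicate on a zwitterionic HILIC column, CO2–methanol gradient containing 20 mmol/L ammonium acetate, postcolumn makeup flow, Orbitrap full-scan detection.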

SMILES | ESI positive response factor (0.0175 µM) | ESI positive response factor (0.035 µM) | ESI positive response factor (0.0875 µM) | ESI positive response factor (0.175 µM) | ESI positive response factor (0.35 µM) | other results
CN1CCN(C)C1=O [1,3-Dimethyl-2-imidazolidinone] | 6.51e+16 | 7.85e+16 | 6.75e+16 | 6.53e+16 | – | –
COC=C(C(=O)OC)c1ccccc1COc1cccc(C(F)(F)F)n1 [Picoxystrobin] | 2.81e+17 | 2.82e+17 | 2.61e+17 | 2.25e+17 | 2.47e+17 | –
Nc1ccc(S(=O)(=O)c2ccc(N)cc2)cc1 [Dapson] | 6.07e+16 | 8.29e+16 | 8.16e+16 | – | – | –
N[C@@H](Cc1ccc(O)cc1)C(=O)O [L-Tyrosine] | – | – | – | – | – | ESI positive response factor (0.061 µM): 2.58e+15; ESI positive response factor (0.122 µM): 2.67e+15; ESI positive response factor (0.244 µM): 3.05e+15
COc1ccc(C(=O)c2ccccc2)c(O)c1 [Oxybenzone] | 1.73e+17 | 1.88e+17 | 1.67e+17 | – | – | –
O=C1CCCN1 [2-Pyrrolidinone] | – | – | – | 8.26e+15 | 8.52e+15 | ESI positive response factor (0.875 µM): 1.07e+16; ESI positive response factor (1.75 µM): 8.7e+15
COCCOCCOCCO [Triethylene glycol monomethyl ether] | 8.19e+16 | 9.98e+16 | 8.29e+16 | 7.97e+16 | – | –
CC(C)C[C@H](CN)CC(=O)O [Pregabalin] | – | – | 1.96e+16 | 1.55e+16 | 1.8e+16 | ESI positive response factor (0.875 µM): 1.58e+16; ESI positive response factor (1.75 µM): 1.57e+16
CC1(C)CCC(Cc2ccc(Cl)cc2)C1(O)Cn1cncn1 (configuration not stated) [Metconazol] | – | – | – | – | – | ESI positive response factor (0.0122 µM): 3.22e+17; ESI positive response factor (0.0244 µM): 3.52e+17; ESI positive response factor (0.061 µM): 3.16e+17
OCCN(CCO)CCO [Triethanolamine] | 8.84e+16 | 8.88e+16 | 8.78e+16 | 8.76e+16 | 8.66e+16 | –
CON(C)C(=O)Nc1ccc(Cl)c(Cl)c1 [Linuron] | – | – | – | – | – | ESI positive response factor (0.0122 µM): 4.3e+16; ESI positive response factor (0.0244 µM): 3.86e+16; ESI positive response factor (0.061 µM): 4.29e+16; ESI positive response factor (0.122 µM): 4.05e+16; ESI positive response factor (0.244 µM): 4.46e+16
CCC[C@@H]1O[C@@H]2C[C@H]3[C@@H]4CCC5=CC(=O)C=C[C@]5(C)[C@H]4[C@@H](O)C[C@]3(C)[C@]2(C(=O)CO)O1 [Budesonid] | 1.27e+17 | 1.3e+17 | 1.25e+17 | 1.16e+17 | 1.25e+17 | –
Cc1cc(=O)oc2cc(O)ccc12 [4-Methylumbelliferone] | – | – | – | – | – | ESI positive response factor (0.0122 µM): 7.52e+16; ESI positive response factor (0.0244 µM): 8.88e+16; ESI positive response factor (0.061 µM): 7.61e+16; ESI positive response factor (0.122 µM): 7.61e+16; ESI positive response factor (0.244 µM): 7.56e+16
N#CN=C(N)N [Dicyandiamide] | – | 3.07e+15 | 4.26e+15 | 3.9e+15 | 4.96e+15 | ESI positive response factor (0.875 µM): 6.05e+15; ESI positive response factor (1.75 µM): 6.06e+15
CNC(=O)CSP(=O)(OC)OC [Omethoate] | 2.18e+16 | 3.37e+16 | 3.65e+16 | 3.18e+16 | 3.93e+16 | –
NCC1CCC(C(=O)O)CC1 (configuration not stated) [Tranexamic acid] | – | 9.61e+16 | 6.97e+16 | 5.79e+16 | 6.32e+16 | ESI positive response factor (0.875 µM): 6.01e+16
CCCCC(CC)CN (configuration not stated) [2-Ethyl-1-hexylamine] | – | – | – | 2.01e+16 | 1.94e+16 | –
NC(=O)C1(N2CCCCC2)CCN(CCCC(=O)c2ccc(F)cc2)CC1 [Pipamperone] | 4.81e+17 | 5.01e+17 | 5.44e+17 | 5.09e+17 | – | –
COCC(=O)N(c1c(C)cccc1C)N1CCOC1=O [Oxadixyl] | 1.33e+17 | 1.43e+17 | 1.57e+17 | 1.23e+17 | 1.48e+17 | –
CC(O)CN(CCO)CCO (configuration not stated) [1-[N,N-Bis(2-hydroxyethyl)amino]-2-propanol] | 2.91e+17 | 3.14e+17 | 3.24e+17 | 2.77e+17 | 2.94e+17 | –
CC(=O)NCCCCC(N)C(=O)O [N?-Acetyl-L-lysine] | – | – | – | – | 8.93e+15 | ESI positive response factor (0.875 µM): 9.29e+15; ESI positive response factor (1.75 µM): 9.24e+15
Nc1cnn(-c2ccccc2)c(=O)c1Cl [Chloridazon] | 7.49e+16 | 1.01e+17 | 8.99e+16 | – | – | –
CCc1cccc(C)c1N(C(=O)CCl)C(C)COC (configuration not stated) [Metolachlor] | – | – | – | – | – | ESI positive response factor (0.0122 µM): 4.41e+17; ESI positive response factor (0.0244 µM): 5.34e+17; ESI positive response factor (0.061 µM): 5.13e+17
Nc1ncnc2c1ncn2C1OC(CO)C(O)C1O (configuration not stated) [Adenosine] | – | 1.46e+17 | 1.26e+17 | – | – | –

SMILES | ESI positive response factor (0.0175 µM) | ESI positive response factor (0.035 µM) | ESI positive response factor (0.0875 µM) | ESI positive response factor (0.175 µM) | ESI positive response factor (0.35 µM) | other results
NCCCC[C@H](N[C@@H](CCc1ccccc1)C(=O)O)C(=O)N1CCC[C@H]1C(=O)O [Lisinopril] | – | – | – | – | – | ESI positive response factor (0.0122 µM): 7.7e+15; ESI positive response factor (0.0244 µM): 1.4e+16; ESI positive response factor (0.061 µM): 1.89e+16; ESI positive response factor (0.122 µM): 1.43e+16; ESI positive response factor (0.244 µM): 1.58e+16
CCN(CC)C(=O)c1cccc(C)c1 [DEET] | – | – | – | – | 4.74e+17 | ESI positive response factor (0.875 µM): 4.86e+17
COC(=O)CCCCCCCCC(=O)OC [Dimethylsebacate] | 7.67e+16 | 7.64e+16 | 6.02e+16 | 5.72e+16 | – | –
CN(C)C(=N)N=C(N)N [Metformin] | – | – | – | – | – | ESI positive response factor (0.0244 µM): 4.62e+16; ESI positive response factor (0.061 µM): 9.71e+16; ESI positive response factor (0.122 µM): 9.59e+16; ESI positive response factor (0.244 µM): 1.01e+17
Nc1cccc2c1CN(C1CCC(=O)NC1=O)C2=O (configuration not stated) [Lenalidomid] | – | – | – | – | – | ESI positive response factor (0.244 µM): 4.65e+14; ESI positive response factor (0.61 µM): 5.58e+14; ESI positive response factor (1.22 µM): 7.56e+14
CCN[C@H]1C[C@H](C)S(=O)(=O)c2sc(S(N)(=O)=O)cc21 [Dorzolamide] | – | 8.5e+15 | 9.06e+15 | 1.22e+16 | 1.22e+16 | ESI positive response factor (0.875 µM): 1.24e+16; ESI positive response factor (1.75 µM): 1.24e+16
C1CN(CCOCCN2CCOCC2)CCO1 [4,4'-(Oxydi-2,1-ethanediyl)bismorpholine] | 4.89e+17 | – | 1.92e+17 | 3.18e+17 | 3.23e+17 | ESI positive response factor (0.875 µM): 4.13e+17; ESI positive response factor (1.75 µM): 3.43e+17
Nc1ccccn1 [2-Aminopyridine] | – | 1.33e+16 | 1.55e+16 | 1.48e+16 | 1.73e+16 | –
OCCN1C[C@H](O)[C@@H](O)[C@H](O)[C@H]1CO [Miglitol] | – | 5.69e+15 | 1e+16 | 1.1e+16 | 1.34e+16 | ESI positive response factor (0.875 µM): 1.42e+16; ESI positive response factor (1.75 µM): 1.46e+16
CC(O)CN(CC(C)O)CC(C)O (configuration not stated) [triisopropanolamine] | – | 1.75e+17 | 2.93e+17 | 3.36e+17 | 3.51e+17 | –
CC(=O)NCCCS(=O)(=O)O [Acamprosate] | – | – | – | 3.1e+15 | 3.14e+15 | ESI positive response factor (0.875 µM): 3.18e+15; ESI positive response factor (1.75 µM): 3.25e+15
O=P(OC(CCl)CCl)(OC(CCl)CCl)OC(CCl)CCl [TDCPP] | 4.09e+17 | 4.02e+17 | 3.57e+17 | – | – | –
NC(N)=NC(N)=NCCc1ccccc1 [Phenformin] | 2.9e+17 | 3.42e+17 | 3.34e+17 | 3.21e+17 | 3.4e+17 | –
O=c1nc2[nH][nH]cc-2c(=O)[nH]1 [Oxypurinol] | – | – | – | – | – | ESI positive response factor (0.875 µM): 5.5e+14; ESI positive response factor (1.75 µM): 4.78e+14
CC(=O)NCCNC(C)=O [N,N'-Ethylenebisacetamide] | – | 4.39e+16 | 4.04e+16 | 3.9e+16 | 3.89e+16 | –
N[C@@H](Cc1ccccc1)C(=O)O [L-Phenylalanin] | – | – | – | – | – | ESI positive response factor (0.122 µM): 1.51e+16; ESI positive response factor (0.244 µM): 1.44e+16; ESI positive response factor (0.61 µM): 1.27e+16
CNC(=O)Oc1cccc2c1OC(C)(C)C2 [Carbofuran] | 8.85e+16 | 8.12e+16 | 8.68e+16 | 7.6e+16 | 9.93e+16 | –
NCC1(CC(=O)O)CCCCC1 [Gabapentin] | – | – | – | – | – | ESI positive response factor (0.244 µM): 2.98e+16; ESI positive response factor (0.61 µM): 2.83e+16; ESI positive response factor (1.22 µM): 3.28e+16
COC(=O)N(OC)c1ccccc1COc1ccn(-c2ccc(Cl)cc2)n1 [Pyraclostrobin] | 6.62e+17 | 5.71e+17 | 5.45e+17 | 4.73e+17 | 5.43e+17 | –
Fc1ccc(Oc2ccnc3cc(Cl)cc(Cl)c23)cc1 [Quinoxyfen] | 9.87e+17 | 1.08e+18 | 9.74e+17 | 9.43e+17 | – | –
Cn1c(=O)c2c(ncn2C)n(C)c1=O [Caffeine] | 2.34e+17 | 2.22e+17 | 2.03e+17 | – | – | –
Nc1ccnc(=O)[nH]1 [Cytosine] | – | – | – | – | 2.81e+15 | ESI positive response factor (0.875 µM): 3.21e+15; ESI positive response factor (1.75 µM): 3.05e+15
CC(Oc1ccc(Oc2ncc(C(F)(F)F)cc2Cl)cc1)C(=O)O (configuration not stated) [Haloxyfop] | – | – | – | – | – | ESI positive response factor (0.244 µM): 5.62e+15; ESI positive response factor (0.61 µM): 5.23e+15; ESI positive response factor (1.22 µM): 4.69e+15
CC(=O)N1CC(O)C[C@H]1C(=O)O (stereo in doubt) [Trans-1-acetyl-4-hydroxy-L-prolin] | – | – | 1.56e+15 | – | 6.42e+15 | ESI positive response factor (0.875 µM): 6.4e+15; ESI positive response factor (1.75 µM): 6.39e+15
